Usually IC50 stands for the concentration that inhibits the measured activity by half. What is called fraction unbound is free concentration divided by total concentration. Read a high fraction unbound as weak binding.

These results are taken from article PMC6072501, “N-tert-Prenylation of the indole ring improves the cytotoxicity of a short antagonist G analogue against small cell lung cancer” (MedChemComm, 2017).

Series [1] deals with H69 small cell lung cancer cell line. Put plainly: Cell viability assay (resazurin) on H69 cells. Format: cell-based, human. The following applies: 48 h. An excerpt: Swiss Albino cell line 3T3 and two SCLC cell lines, DMS79 and H69, were selected for screening. 3T3 cells are fibroblast non-cancerous cells and were used to show the selectivity of the peptides for cancer treatment. The DMS79 cell line is a variant cell line model which is more resistant to chemotherapy as it originates from a patient with SCLC who had undergone treatment with cytoxan, vincristine, methotrexate and radiation therapy. On the other hand, H69 represents a chemo-naive SCLC cell line model. Cell viability was assessed by quantifying the reduction of resazurin dye to fluorescent resorufin.[28]–[31] H69 and DMS79 cells were seeded in 96-well plates at a density of 10 000 cells per well and maintained in 10% FBS/RPMI-1640 for 48 hours at 37 °C in a humidified air atmosphere of 5% CO2 in the presence of various peptide concentrations. 3T3 cells were maintained under the same conditions but using 10% FBS/DMEM and a seeding density of 2500 cells per well. The dye was then applied for 5 hours before measuring fluorescence. […] The peptide thus had the potential to be tested in vivo subject to its biocompatibility with plasma.
Growth media, RPMI-1640 (with L-glutamine and NaHCO3) and DMEM, Dulbecco’s PBS (without calcium chloride and magnesium chloride), and Resazurin sodium salt were obtained from Sigma-Aldrich®. Human lung small cell carcinoma (H69 (ECACC 91091802)) and Mouse Swiss Albino embryo fibroblast (3T3 Swiss Albino (ECACC 85022108)) were from European Collection of Authenticated Cell Cultures (ECACC, Public Health England). […]
(§1) Complete medium containing resazurin was used as background. […] Then resazurin (20 µl) was added to each well and kept at 37 °C in a humidified air atmosphere of 5% CO2 for 5 hours before fluorescence readings were recorded. […]
(§2) Assessment of apoptosis was carried out through a fluorescent technique by using Acridine Orange (AO) and Ethidium Bromide (EB) double staining. […] AO emits green fluorescence while EB emits red/orange fluorescence when […]
In general terms: Resazurin is reduced to fluorescent resorufin, in cell work by metabolically active cells.

The subject of series [2] is DMS79 small cell lung cancer cell line. Nature of the series: Cell viability assay (resazurin) on DMS79 cells. Format: cell-based, human. The following applies: 48 h.
Description: (§3) Swiss Albino cell line 3T3 and two SCLC cell lines, DMS79 and H69, were selected for screening. 3T3 cells are fibroblast non-cancerous cells and were used to show the selectivity of the peptides for cancer treatment. The DMS79 cell line is a variant cell line model which is more resistant to chemotherapy as it originates from a patient with SCLC who had undergone treatment with cytoxan, vincristine, methotrexate and radiation therapy. On the other hand, H69 represents a chemo-naive SCLC cell line model. Cell viability was assessed by quantifying the reduction of resazurin dye to fluorescent resorufin.[28]–[31] H69 and DMS79 cells were seeded in 96-well plates at a density of 10 000 cells per well and maintained in 10% FBS/RPMI-1640 for 48 hours at 37 °C in a humidified air atmosphere of 5% CO2 in the presence of various peptide concentrations. […] The dye was then applied for 5 hours before measuring fluorescence. […]
as §1, §2

In series [3] the test system is 3T3 Swiss Albino fibroblasts. The series is classed as cell-based, mouse. The following applies: 48 h.
Description: as §3, §1, §2

The conditions of series [4]: phase I clinical trial, cited from earlier work. An excerpt: Recognising the anti-proliferative action together with other preclinical evidence supporting broad-spectrum neuropeptide antagonism prompted a phase I clinical trial with SPG,[11] the results of which were encouraging. […] This, combined with low potency of the peptide, necessitated prolonged dosing by infusion to maintain therapeutic concentrati ...

Series [5] in a line: Peptide stability in mouse plasma (HPLC). Format: in vitro ADME. The following applies: neat mouse plasma, 37 °C; for stability in mouse plasma over 3 hour incubation: 400 µg/ml, 0 and 3 h, RP-HPLC C8, 220 nm, triplicate. The procedure:
(§4) Plasma drug interaction affects the ability of the drug to distribute into tissues. To determine the extent of plasma binding to peptide 2, equilibrium dialysis (Cyprotex Ltd) was carried out. A 5 μM solution of peptide in PBS at pH 7.5 in 0.5% DMSO was mixed with neat human plasma in a total volume of 0.15 ml. After equilibrium at 37 °C, aliquots were taken from both sides of the membrane to determine the fraction of bound peptide. […] While in circulation, the peptide needs to be stable for a few hours to accumulate in tumours. It is commonly accepted that unmodified peptides are highly prone to protease digestion in plasma, leading to rapid degradation within a few minutes. Peptides 1 and 2 were subjected to stability testing in mouse plasma. The peptides dissolved in neat plasma (0.2 ml) were incubated at 37 °C. Aliquots (20 μl) were taken at 0 and 3 hour intervals in triplicate for analysis by HPLC. […] A plasma stability of 3 hours is considered as a sufficient time window to accumulate in tumour for efficacy studies.
4. Peptides stability in mouse plasma
Eppendorf® tubes were used for sample preparations. HPLC microvials were bought from Sigma-Aldrich®. HPLC analysis was performed using a C8 column (ACE 5 C8 – 250 X 4.6mm id) on a PerkinElmer Series 200 machine.
4.2. Peptides plasma stability
Peptides were added to neat mouse plasma at a concentration of 400 µg/ml and placed inside an incubator at 37 °C for 3 hours. Aliquots (20 µl) were taken at 0 and 3 hour periods. […] Then 80 µl of the supernatant was added to 0.1% TFA/H2O (120 µl) and transferred into a HPLC microvial to be analysed using the C8 column. […]
DMS79 cells were injected subcutaneously into ten CBA nude female mice (bred in house) at 5x10^6 cells/mouse in 0.1 ml of serum free RPMI-1640 medium containing 50% matrigel (Scientific Laboratory Supplies, Surrey, UK) as described in our recent publication (Reference 38). Tumours were measured and mice weighed 3 times a week throughout the study. Tumour volumes were calculated by multiplying the length, width and depth of tumors. […]

The nature of series [6]: Plasma binding by equilibrium dialysis (Cyprotex Ltd). The series is classed as in vitro ADME. The following applies: neat human plasma. On the procedure:
as §4
In general terms: In equilibrium dialysis free small molecules cross a membrane that holds back macromolecules.

Series [7] can be described thus: Aqueous solubility (observation on dosing solutions). The series is classed as physicochemical. The following applies: observation while preparing dosing solutions; higher concentration gave significant precipitation.
In another series the test system is NCI-H69 cells. Conditions: at 50 μM, serum-free media; cited from earlier work. An excerpt: (§5) Several other related short chain SP antagonists have been investigated in the literature. […] Recently, Sarvi et al.[19] designed and synthesised a panel of eight substance P-peptide analogues ranging from a pentamer to 11-mer sequences. They compared their IC50 values, relative to SPG, using H345 and H69 cell lines. All an ...

In a further series the test system is H345 and H69 cell lines. The following applies: cited from earlier work.
Description: as §5

For a further series, the system named is H69. The following applies: treatment for 72 hours; cited from earlier work. The source says: Swiss Albino cell line 3T3 and two SCLC cell lines, DMS79 and H69, were selected for screening. 3T3 cells are fibroblast non-cancerous cells and were used to show the selectivity of the peptides for cancer treatment. The DMS79 cell line is a variant cell line model which is more resistant to chemotherapy as it originates from a patient with SCLC who had undergone treatment with cytoxan, vincristine, methotrexate and radiation therapy. On the other hand, H69 represents a chemo-naive SCLC cell line model. Cell viability was assessed by quantifying the reduction of resazurin dye to fluorescent re ...

A further series has as its system H345 xenografts. Conditions: subcutaneous injections, 25 mg kg^–1; cited from earlier work. On the procedure:
The relative tumour volume (RTV) as a percentage was calculated by dividing the tumour volumes on measured days by the tumour volume on day 0, before treatment. […] Excluding this single animal from the treated group, the tumour growth inhibition (TGI, Fig. 5) was calculated at day 7 as TGI (%) = (1 – T/C) × 100, where T indicates the mean tumour volume (mm^3) of the test group and C indicates the mean tumour volume of the vehicle-treated group. At day 7, the tumour volumes of pre ...

[8] abbreviates: up to the concentration of 30 μM, resazurin.

Entries after “also recorded” stand apart in the source; their conditions may differ. *1 amine or outer side, *2 acyl side, *3 side chain or, on linkers, in order; H or OH if unused. Where a SMILES comes first, the peptide text is derived from it. Where no end group is shown, it is not given here. [ ]: non-standard residue; d: D form. X1 = C=CC(C)(C)n1cc(C[C@@H](N[*:1])C(=O)[*:2])c2ccccc21; NMeF = CN[C@@H](Cc1ccccc1)C(=O)O; dNMeF = CN[C@H](Cc1ccccc1)C(=O)O

Turning to `CSCC[C@H](NC(=O)[C@H](CC(C)C)NC(=O)[C@@H](Cc1c[nH]c2ccccc12)NC(=O)[C@H](Cc1ccccc1)N(C)C(=O)[C@@H](Cc1c[nH]c2ccccc12)NC(=O)[C@@H](N)CCCNC(=N)N)C(N)=O` [SPG, Arg–D-Trp–NMePhe–D-Trp–Leu–Met-NH2] (H-R[dW][NMeF][dW]LM-NH2), the IC50 in [1], in series [2] and in [3] was over 30 µM each time. For the same compound, the “inhibitory effect (cytotoxicity profile), H69” value in [1] (setting [8]) is listed as “no inhibitory effect”. For the same compound, the “inhibitory effect (cytotoxicity profile), DMS79” value in [2] (setting [8]) was “no inhibitory effect”. Also, in series [4] (resulting in poor systemic bioavailability), the elimination from plasma entry is “quickly eliminated from plasma”. Also, the toxicity result in series [4] is “minimal toxicity”.

With `CN[C@H](Cc1ccccc1)C(=O)N[C@H](Cc1c[nH]c2ccccc12)C(=O)N[C@@H](Cc1ccccc1)C(=O)N[C@H](Cc1c[nH]c2ccccc12)C(=O)N[C@@H](CC(C)C)C(N)=O` [peptide 1] (H-[dNMeF][dW]F[dW]L-NH2), the “stability in mouse plasma over 3 hour incubation” value in series [5] is on record as “remained largely intact”.

As to `C=CC(C)(C)n1cc(C[C@@H](NC(=O)[C@H](Cc2ccccc2)NC(=O)[C@@H](Cc2c[nH]c3ccccc23)NC(=O)[C@@H](Cc2ccccc2)NC)C(=O)N[C@@H](CC(C)C)C(N)=O)c2ccccc21` [peptide 2, NMeDPhe-DTrp-Phe-DTrp(N-tert-prenyl)-Leu-NH2] (H-[dNMeF][dW]F[X1]L-NH2), in [1] (depending on the cell line (DMS79 and H69)), the “cytotoxicity enhancement of 2 over pentamer 1 (comparison of IC50 values)” value is on record as 5 to 10 fold. The compound also returned an unbound share (fraction unbound) at 5 µM in [6] (5 μM peptide in PBS pH 7.5 with 0.5% DMSO, total volume 0.15 ml, 37 °C, mean) of 0.728 ± 0.124. Moreover, the peptide unbound in series [6] (5 μM, PBS pH 7.5, 37 °C) is recorded as 73%. In addition, the “stability in mouse plasma over 3 hour incubation” value in [5] is given as “remained largely intact; also recorded: a small percentage of degradation was noted”. For the same compound, in [5] (HPLC), the “time of resisting degradation by plasma” value is reported as “at least 3 hours”. Moreover, in series [7], the aqueous solubility result was “limited aqueous solubility; also recorded: lower aqueous solubility than SPG”.

With “D-MePhe–D-Trp–Phe–D-Trp–Leu-MPA [NY3521]”, the “inhibition of growth of NCI-H69 cells” value in the series with NCI-H69 cells was “completely inhibited”.

As for “D-MePhe–D-Trp–Phe–D-Trp–LeuΨ(CH2NH)Leu-NH2 [NY3460]”, the “inhibition of growth of NCI-H69 cells” value in the series on NCI-H69 cells is “completely inhibited”.

In the case of [dR]PKP[dW]Q[dW]F[dW][dL]L [11-mer], the “potency relative to SPG (IC50 values)” value in the series with H345 and H69 cell lines is 3 to 4 fold. Besides, in the series with H69, the IC50 was 4.96 ± 0.64 µM. For the same compound, the tumour growth entry with H345 xenografts is recorded as “significant reduction in tumour growth”.
